We go through 4 compounds from patent US11013750B2, “Methods for treating and preventing nociceptive pain” (Aurin Biotech Inc., priority 2017, dated 2021).

In assay [1] the test system is SH-SY5Y human neuroblastoma cells. Description: CH50 type analysis of inhibition of C3B cleavage, LDH release end point. The class given is cell-based. As to conditions: SH-SY5Y cells with undiluted human serum, 37° C. for 3 h, read-out: concentration to inhibit cell lysis by 50% (IC 50). On the procedure:
To investigate efficacy of DAS, ATA, AQA and AHA and to inhibit C3B cleavage in SH-SY5Y human neuroblastoma cells, a CH50 type analysis was performed. Lactate dehydrogenase (LDH) release from dead cells was the end point. Reaction mixtures were: SH-SY5Y cells (10^5 cells in 1 ml DMEM/F-12 medium), 250 μL of undiluted human serum and 250 μL of DAS (3 μM), ATA (5 μM), AQA (5 μM), or AHA (5 μM). Mixtures were incubated at 37° C. for 3 h. 100 μl of cell free reaction mixtures were transferred to 96 well plates where they were mixed with a solution containing 15 μl lactate (36 mg/ml in PBS) plus 15 μl p-iodonitrotetrazolium violet (INT, 2 mg/ml in PBS). The enzymatic reaction was started by the addition of 15 μl of NAD^+/diaphorase solution (3 mg/ml NAD^+; 2.3 mg solid/ml diaphorase). After 1 h, optical densities were measured with a Model 450 microplate reader (Bio-Rad Laboratories, Richmond, Calif.) using a 490-nm filter. The amount of LDH released was expressed as a percentage of the value obtained in comparative wells where cells were 100% lysed by 0.1% Triton X-100.
Cell lysis was concentration dependent for each of the components investigated.
(In general: LDH in the medium is a marker of cell lysis.)

In assay [2] the test system is C5a formation (C5 convertase). The experiment in a line: Blockade of C5a formation, western blotting. The class given is cell-based. As to conditions: SH-SY5Y cells, 10% human serum, zymosan 100 μg/ml, C1 inhibitor 5 μg/ml, 37° C. 1 h. On the procedure:
To verify that each of the inhibitors was acting by inhibiting formation of C5 convertase, western blotting experiments were carried out. Results are shown in illustrated in FIG. 4. SH-SY5Y human neuroblastoma cells (2×10^5 cells in 1 ml DMEM/F-12 medium including 10% human serum) were incubated with zymosan (100 μg/ml) in 24 well plates at 37° C. for 1 h with or without DAS (3 μM), ATA (5 μM), AQA (5 μM), or AHA (5 μM). To inhibit any classical pathway activation, C1 inhibitor (5 μg/ml) was added. Supernatants were obtained by centrifugation at 4000 g for 30 min through 30 K-filters (Amicon® Ultra-15, 30,000 NMWL, Millipore, Billerica, Mass.). The filtrates were dried and added to the loading buffer for SDS-PAGE (50-mM Tris (pH 6.8), 0.1% SDS, 0.1% bromophenol blue, and 10% glycerol). Proteins were separated in 10% polyacrylamide gels at 70V for 6 h. The proteins were then transferred to polyvinylidene difluoride (PVDF) membranes (Bio-Rad, CA) at 30 mA for 2 hours. After washing with PBS-T, the membranes were treated with a mouse monoclonal C5/C5a antibody (Abcam, Cambridge Mass., 1/2000) for 15 hours at 4° C. The membranes were then treated with an appropriate HRP-conjugated anti-mouse IgG (A3682, 1/3,000; Sigma) for 3 hours at room temperature. The bands were visualized with an enhanced chemiluminescent system and exposure to photographic film (Hyperfilm ECL; Amersham Pharmacia Biotech, Little Chalfont, UK).
(Immunoblotting shows a protein as a band on a membrane.)

On to aurin quadracarboxylic acid [AQA], for which the IC50 in assay [1] amounted to 522 nM. For the same compound, the “C5a formation (western blot)” value in assay [2] (5 μM) is recorded as “C5a was no longer formed”.

`CC(=O)Oc1ccc(Cc2ccc(OC(C)=O)c(C(=O)O)c2)cc1C(=O)O` [DAS, 5,5′-methylenebis(2-acetoxybenzoic) acid]: in assay [1], the IC50 was 109 nM. The “C5a formation (western blot)” value in assay [2] (3 μM) is “C5a was no longer formed”.

Take `O=C(O)C1=CC(=C(c2ccc(O)c(C(=O)O)c2)c2ccc(O)c(C(=O)O)c2)C=CC1=O` [ATA, aurin tricarboxylic acid]: the IC50 in assay [1] is 550 nM.

In the case of aurin hexacarboxylic acid [AHA], in assay [1], the IC50 was determined as 534 nM. In addition, the “C5a formation (western blot)” value in assay [2] (5 μM) is listed as “C5a was no longer formed”.
